Reference: US9273043B2, “TRPV1 antagonists including dihydroxy substituent and uses thereof” (Purdue Pharma L.P., priority 2011, dated 2016)
Marks after values point to notes of the source that are not given here.

Test system: MIA-induced osteoarthritis pain
Test: MIA-induced osteoarthritis model, weight bearing difference (WBD) test
Assay type: in vivo
Conditions: rat MIA
Excerpt: Osteoarthritis Pain: To assess the actions of a Compound of Formula (I) for the treatment or prevention of osteoarthritis pain, the rat monosodium iodo-acetate (MIA, i.e., sodium 2-iodoacetate) induced osteoarthritis model was used. Intra-articular injection of MIA causes joint degeneration characterized by osteolysis and swelling, with displacement of the patella, and reductions in bone mineral content and bone mineral density (Pomonis et al., “Development and pharmacological characterization of a rat model of osteoarthritis pain,” Pain 114: 339-346 (2005)). Under isoflurane anaesthesia, an intra-articular injection of 2 mg of MIA (Sigma-Aldrich) in 50 μl of saline was administered through the infrapatellar ligament of the knee joint of the right hind leg of the male, 6 week old Crl:CD(SD) rats. Control rats received an intra-articular injection of 50 μl of saline into the knee joint of the right hind leg. The left knee joint of all rats was untreated. […] Thus, in the assessment for osteoarthritis pain relief through gripping capability determinations, the 24 hour time point was the start of the next day when drug-in-vehicle was again orally administered (24 hours after the prior administration) for certain dosages. […] Weight Bearing Difference Test as an Assessment of Osteoarthritis Related Pain: The weight bearing difference test provides an accepted assessment of the efficacy of clinically useful analgesic drugs with respect of osteoarthritis related pain (see Pomonis et al. (2005)). WBD was assessed using a Linton Incapacitance Tester (Linton Instrumentation, Norfolk, UK). Rats were placed on the apparatus so that they were standing on their hind legs, and allowed to acclimate to the apparatus. When stationary, the weight born on each leg was measured over a 3s period. Three readings were taken for each rat at each time point; the average of the three readings was used for data analysis. WBD was expressed as “% WR”, i.e., the percentage of weight born on the MIA-injected right hind leg, using the following formula: [formula] where WR is the weight on the right hind leg and WL is the weight on the left (untreated) hind leg. […] The “% WRR”, i.e., the percentage reversal of the % WR impediment occurring post-MIA injection, was determined for each dosage at each time point using the following formula: [formula] where (% WR)Post-Drug is the % WR determined at each post-oral-administration time-point for each dose of each administered substance, (% WR)Pre-Drug is the % WR determined pre-oral-administration of each administered substance, and (% WR)Control Rat is the % WR determined for control rats (receiving the saline injection into the right hind leg knee joint). With the exception of the controls (i.e., celecoxib, vehicle) where the student's t-test was used, Dunnett's test was conducted for the % WRR.

**Q.** What does the source list for CC1CN(c2ncc(C(O)CO)cc2F)CCN1C(=O)Nc1nc2cc(F)ccc2s1.O=C(O)C=CC(=O)O (stereo not shown)?
**A.** minimal effective dose: 1 mg/kg; % WRR [mean] (oral 0.3 mg/kg, 1 h after administration): 4.3%; % WRR [mean] (oral 0.3 mg/kg, 3 h after administration): 12.5%; % WRR [mean] (oral 0.3 mg/kg, 5 h after administration): 7.1%; % WRR [mean] (oral 0.3 mg/kg, 7 h after administration): 5.0%; % WRR [mean] (oral 0.3 mg/kg, 24 h after administration): 0%; % WRR [mean] (oral 1 mg/kg, 1 h after administration): 15.2%; % WRR [mean] (oral 1 mg/kg, 3 h after administration): 28.8** %; % WRR [mean] (oral 1 mg/kg, 3 h after administration, listed as product prepared with Compound A155(a) and fumaric acid): 28.8%; % WRR [mean] (oral 1 mg/kg, 5 h after administration): 16.1** %; % WRR [mean] (oral 1 mg/kg, 5 h after administration, listed as product prepared with Compound A155(a) and fumaric acid): 16.1%; % WRR [mean] (oral 1 mg/kg, 7 h after administration): 8.8* %; % WRR [mean] (oral 1 mg/kg, 7 h after administration, listed as product prepared with Compound A155(a) and fumaric acid): 8.8%; % WRR [mean] (oral 1 mg/kg, 24 h after administration): 2.1%; % WRR [mean] (oral 3 mg/kg, 1 h after administration): 20.9** %; % WRR [mean] (oral 3 mg/kg, 3 h after administration): 34.5** %; % WRR [mean] (oral 3 mg/kg, 5 h after administration): 23.4** %; % WRR [mean] (oral 3 mg/kg, 7 h after administration): 9.5* %; % WRR [mean] (oral 3 mg/kg, 24 h after administration): 3.7%; % WRR [mean] (oral 10 mg/kg, 1 h after administration): 33.3** %; % WRR [mean] (oral 10 mg/kg, 3 h after administration): 44.1** %; % WRR [mean] (oral 10 mg/kg, 5 h after administration): 35.0** %; % WRR [mean] (oral 10 mg/kg, 7 h after administration): 22.8** %; % WRR [mean] (oral 10 mg/kg, 24 h after administration): 9.8%; % WRR [mean] (oral 20 mg/kg, 1 h after administration): 41.9** %; % WRR [mean] (oral 20 mg/kg, 1 h after administration, listed as product prepared with Compound A155(a) and fumaric acid): 41.9%; % WRR [mean] (oral 20 mg/kg, 3 h after administration): 56.9** %; % WRR [mean] (oral 20 mg/kg, 3 h after administration, listed as product prepared with Compound A155(a) and fumaric acid): 56.9%; % WRR [mean] (oral 20 mg/kg, 5 h after administration): 46.9** %; % WRR [mean] (oral 20 mg/kg, 5 h after administration, listed as product prepared with Compound A155(a) and fumaric acid): 46.9%; % WRR [mean] (oral 20 mg/kg, 7 h after administration): 35.6** %; % WRR [mean] (oral 20 mg/kg, 7 h after administration, listed as product prepared with Compound A155(a) and fumaric acid): 35.6%; % WRR [mean] (oral 20 mg/kg, 24 h after administration): 19.8** %; % WRR [mean] (oral 20 mg/kg, 24 h after administration, listed as product prepared with Compound A155(a) and fumaric acid): 19.8%
